Source: patent US7384912B2, “Treatment of bone disorders with skeletal anabolic drugs” (Osteotrophin, LLC, priority 2002, dated 2008)
Where two headings read alike, the source gives them in different places. Marks after values point to notes of the source that are not given here. No end group written: not given here.

What was measured:
[1] = system: adenylate cyclase in SaOS-2 membranes; experiment: Adenylate cyclase assay in SaOS-2 cell membranes; assay type: biochemical, human; conditions: 30° C., 30 min
Method: Therefore, dose response curves for each peptide were generated at 30° C. for 10 min in human kidney and 30° C. for 30 min in SaOS-2 membranes. As with the intact cell adenylate cyclase assays, kidney and bone cell membrane adenlyate cyclase assays were performed under binding assay conditions. Results are expresses as percentage of maximal cAMP stimulation in order to compare peptide dose responses from different experiments.
(§1) Statistical differences were assessed by paired and unpaired two-tailed Student's t test.

[2] = system: adenylate cyclase in SaOS-2 intact cells; experiment: Adenylate cyclase assay in SaOS-2 intact cells; assay type: cell-based, human; conditions: 15° C., 60 min
Method: Adenylate cyclase-stimulating activity was examined in confluent SAOS-2 cells as previously described for ROS 17/2.8 cells (Merendino et al., Science 231:388-390, (1986)), with the following modification. The intact cell assay was conducted at 15° C., the same conditions employed for binding to intact SaOS-2 cells (vide supra). […] Dose response curves for each peptide were thus generated using 60 min incubations at 15° C. under binding assay conditions.
as §1

[3] = system: patients with osteoporosis; conditions: cited from earlier work
[4] = target: T1, PTH/PTHrP receptors in human renal cortical membranes (RCM) (Homo sapiens, UniProt Q03431); experiment: Competition binding of 125I-(Tyr36)hPTHrP-(1-36)NH2 to human renal cortical membranes
T1 sequence (Q03431 27-593): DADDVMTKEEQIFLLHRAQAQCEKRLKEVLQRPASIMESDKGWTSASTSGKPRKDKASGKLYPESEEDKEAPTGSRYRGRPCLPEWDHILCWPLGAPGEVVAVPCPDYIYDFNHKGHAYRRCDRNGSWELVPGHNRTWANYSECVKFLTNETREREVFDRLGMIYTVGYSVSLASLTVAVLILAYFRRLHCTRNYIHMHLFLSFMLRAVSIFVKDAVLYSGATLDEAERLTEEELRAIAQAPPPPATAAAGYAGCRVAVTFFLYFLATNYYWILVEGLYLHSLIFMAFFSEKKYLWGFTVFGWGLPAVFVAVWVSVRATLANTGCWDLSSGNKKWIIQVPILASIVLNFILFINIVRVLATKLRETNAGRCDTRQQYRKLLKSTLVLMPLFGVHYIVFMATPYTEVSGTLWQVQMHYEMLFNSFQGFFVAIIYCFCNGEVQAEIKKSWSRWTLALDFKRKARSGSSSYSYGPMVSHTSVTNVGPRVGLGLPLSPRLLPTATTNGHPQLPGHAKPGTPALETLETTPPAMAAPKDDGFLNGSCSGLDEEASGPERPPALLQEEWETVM
Method: All steps were performed in the presence of the following protease inhibitors: aprotinin [10 Kallikrein inhibitor units (KIU/ml], pepstatin (5 μg/ml), leupeptin (45 μg/ml), and phenylmethanesulfanylfluoride (10 μg/ml). Normal human kidney cortex was from four separate nephrectomy specimens removed for localized transitional cell carcinoma, renal cell carcinoma, or benign cysts. Renal function in all individuals was normal as assessed by serum creatinine and pyelography. Membranes were pooled, aliquoted, and stored at −70° C. for later use.
Human RCM were added to a final concentration of 90 μg/ml. […] The incubation time of 30 min was used for subsequent equilibrium binding competition studies.
as §1

[5] = system: ovariectomized (OVX) rats; experiment: Bone histomorphometry of the right proximal tibia in ovariectomized rats; assay type: in vivo, rat; parameters: Trabecular Number Tb.N.: unit not given here; conditions: for Apposition Rate MAR / Bone Formation Rate BFR/BS / Mineralizing Surface MS/BS / Osteoclast Surface Oc.PM / Resorbing Surface E.PM / Trabecular Area Tb.A. / Trabecular Number Tb.N. / Trabecular Space Tb.Sp. / Trabecular Thickness Tb.Th.: 40 μg/kg/day s.c. once daily
[6] = system: ovariectomized (OVX) rats; experiment: Bone mass measurements in ovariectomized rats; assay type: in vivo, rat; parameters: Left Femur Length: unit not given here; conditions: 40 μg/kg/day s.c. once daily
[7] = system: ovariectomized (OVX) rats; experiment: Biomechanical measures of strength in ovariectomized rats; assay type: in vivo, rat; conditions: 40 μg/kg/day s.c. once daily
[8] = two to three years of administration

CCCC[C@H](NC(=O)[C@H](CO)NC(=O)[C@H](CC(N)=O)NC(=O)[C@H](CC(C)C)NC(=O)[C@H](Cc1c[nH]cn1)NC(=O)[C@H](CCCCN)NC(=O)CNC(=O)[C@H](CC(C)C)NC(=O)[C@H](CC(N)=O)NC(=O)[C@H](Cc1c[nH]cn1)NC(=O)[C@H](CCCC)NC(=O)[C@H](CC(C)C)NC(=O)[C@H](CCC(N)=O)NC(=O)[C@@H](NC(=O)[C@H](CCC(=O)O)NC(=O)[C@H](CO)NC(=O)[C@@H](NC(=O)[C@@H](N)CO)C(C)C)[C@@H](C)CC)C(=O)N[C@@H](CCC(=O)O)C(=O)N[C@@H](CCCNC(=N)N)C(=O)N[C@H](C(=O)N[C@@H](CCC(=O)O)C(=O)N[C@@H](Cc1c[nH]c2ccccc12)C(=O)N[C@@H](CC(C)C)C(=O)N[C@@H](CCCNC(=N)N)C(=O)N[C@@H](CCCCN)C(=O)N[C@@H](CCCCN)C(=O)N[C@@H](CC(C)C)C(=O)N[C@@H](CCC(N)=O)C(=O)N[C@@H](CC(=O)O)C(=O)N[C@H](C(=O)N[C@@H](Cc1c[nH]cn1)C(=O)N[C@@H](CC(N)=O)C(=O)N[C@@H](Cc1ccc(O)cc1)C(=O)O)C(C)C)C(C)C [(Nle^8,18Tyr^34)hPTH-(1-34), (Nle^8,18, Tyr^34)hPTH-(1-34)]
EC50 [1]: 1.9 ± 0.4 nM
EC50 [2]: 2.3 ± 0.4 nM

CC(C)C[C@H](NC(=O)[C@H](CCCCN)NC(=O)CNC(=O)[C@H](CC(C)C)NC(=O)[C@@H](NC(=O)[C@@H]1CSSC[C@H](N)C(=O)N[C@@H](CO)C(=O)N[C@@H](CC(N)=O)C(=O)N[C@@H](CC(C)C)C(=O)N[C@@H](CO)C(=O)N[C@@H]([C@@H](C)O)C(=O)N1)C(C)C)C(=O)N[C@@H](CO)C(=O)N[C@@H](CCC(N)=O)C(=O)N[C@@H](CCC(=O)O)C(=O)N[C@@H](CC(C)C)C(=O)N[C@@H](Cc1c[nH]cn1)C(=O)N[C@@H](CCCCN)C(=O)N[C@@H](CC(C)C)C(=O)N[C@@H](CCC(N)=O)C(=O)N[C@H](C(=O)N[C@@H](Cc1ccc(O)cc1)C(=O)N1CCC[C@H]1C(=O)N[C@@H](CCCNC(=N)N)C(=O)N[C@H](C(=O)N[C@@H](CC(N)=O)C(=O)N[C@H](C(=O)NCC(=O)N[C@@H](CO)C(=O)NCC(=O)N[C@H](C(=O)N1CCC[C@H]1C(N)=O)[C@@H](C)O)[C@@H](C)O)[C@@H](C)O)[C@@H](C)O [calcitonin]
increase in lumbar spine bone mineral density [3, 8]: ~2%

[Ca+2] [calcium]
increase in lumbar spine bone mineral density [3, 8]: ~2%

O=C(c1ccc(OCCN2CCCCC2)cc1)c1c(-c2ccc(O)cc2)sc2cc(O)ccc12 [raloxifene]
increase in lumbar spine bone mineral density [3, 8]: ~3%

PTH(1-84)
hypercalcemia, serum calcium ([3]; doses of approximately 40 micrograms): up to 15 mg/dl

SVSEMQLMHNLGEHRHTVERQDWLQMKLQDVHSA-NH2 [cPTH-(1-34)NH2, Chicken PTH-(1-34)amide]
IC50 ([4]; human RCM, 30° C., 30 min, read-out: Binding (IC50) Kidney membranes): 21.5 ± 8.5 nM

hPTH-(1-34)
EC50 [2]: 1.6 nM
Apposition Rate MAR ([5]; 30 days): 2.4 ± 0.1^c μm/d
Bone Formation Rate BFR/BS ([5]; 30 days): 1.18 ± 7^a,c μm/d
Mineralizing Surface MS/BS ([5]; 30 days): 49 ± 2^a,c %
Osteoclast Surface Oc.PM ([5]; 30 days): 2.3 ± 0.6%
Resorbing Surface E.PM ([5]; 30 days): 8.6 ± 1.2%
Trabecular Area Tb.A. ([5]; 30 days): 19 ± 2^a %
Trabecular Number Tb.N. ([5]; 30 days): 2.3 ± 0.1
Trabecular Space Tb.Sp. ([5]; 30 days): 367 ± 28^a,c Φm
Trabecular Thickness Tb.Th. ([5]; 30 days): 81 ± 5^a,c Φm
Apposition Rate MAR ([5]; 90 days): 3.0 ± 0.1^a,c μm/d
Bone Formation Rate BFR/BS ([5]; 90 days): 1.23 ± 4^a,c μm/d
Mineralizing Surface MS/BS ([5]; 90 days): 41 ± 1^a,c %
Osteoclast Surface Oc.PM ([5]; 90 days): 2.6 ± 0.5%
Resorbing Surface E.PM ([5]; 90 days): 10.6 ± 1.3^c %
Trabecular Area Tb.A. ([5]; 90 days): 38 ± 3^a,c %
Trabecular Number Tb.N. ([5]; 90 days): 2.4 ± 0.2
Trabecular Space Tb.Sp. ([5]; 90 days): 274 ± 34^a Φm
Trabecular Thickness Tb.Th. ([5]; 90 days): 158 ± 6^a,c Φm
Apposition Rate MAR ([5]; 180 days): 3.8 ± 0.7^c μm/d
Bone Formation Rate BFR/BS ([5]; 180 days): 1.53 ± 28^a,c μm/d
Mineralizing Surface MS/BS ([5]; 180 days): 40 ± 2^a,c %
Osteoclast Surface Oc.PM ([5]; 180 days): 2.0 ± 0.4%
Resorbing Surface E.PM ([5]; 180 days): 6.4 ± 1.5%
Trabecular Area Tb.A. ([5]; 180 days): 38 ± 3^a,c %
Trabecular Number Tb.N. ([5]; 180 days): 2.3 ± 0.1
Trabecular Space Tb.Sp. ([5]; 180 days): 279 ± 29^a Φm
Trabecular Thickness Tb.Th. ([5]; 180 days): 163 ± 8^a,c Φm
bone in the right proximal tibia, photomicrographs ([5]; 90 days of treatment): not only restores lost bone but significantly increases trabecular bone volume over Sham
Left Femur BMC ([6]; 30 days): 0.340 ± 0.011^a,c
Left Femur BMD ([6]; 30 days): 0.200 ± 0.004^a
Left Femur Length ([6]; 30 days): 34.9 ± 0.3
Left Femur X Area ([6]; 30 days): 1.68 ± 0.04^c
Radius Ash Weight ([6]; 30 days): 60 ± 1^c mg
Whole Body BMC ([6]; 30 days): 64 ± 3^c
Left Femur BMC ([6]; 90 days): 0.401 ± 0.010^a,c
Left Femur BMD ([6]; 90 days): 0.232 ± 0.005^a,c
Left Femur Length ([6]; 90 days): 35.7 ± 0.2^c
Left Femur X Area ([6]; 90 days): 1.73 ± 0.03^c
Radius Ash Weight ([6]; 90 days): 66 ± 1^a,c mg
Whole Body BMC ([6]; 90 days): 69 ± 3^c
Left Femur BMC ([6]; 180 days): 0.451 ± 0.012^a,c
Left Femur BMD ([6]; 180 days): 0.234 ± 0.004^a,c
Left Femur Length ([6]; 180 days): 35.6 ± 0.3^c
Left Femur X Area ([6]; 180 days): 1.84 ± 0.04^a,c
Radius Ash Weight ([6]; 180 days): 72 ± 2^a,c mg
Whole Body BMC ([6]; 180 days): 71 ± 3^c
Femur Neck Ultimate Load, (Fu) ([7]; 30 days): 139 ± 3^ac N
Mid-Femur Cortical Thickness (t) ([7]; 30 days): 0.64 ± 0.02^ac mm
Mid-Femur Moment of Inertia (I) ([7]; 30 days): 4.5 ± 0.2 mm^4
Mid-Femur Stiffness (S) ([7]; 30 days): 571 ± 13 N/mm
Mid-Femur Toughness (u) ([7]; 30 days): 6.0 ± 0.3^c MJ/m^3
Mid-Femur Ultimate Load (Fu) ([7]; 30 days): 185 ± 6^ac N
Mid-Femur Ultimate Stress (Su) ([7]; 30 days): 229 ± 7 MPa
Mid-Femur Work to Failure (U) ([7]; 30 days): 63 ± 4 mJ
Mid-Femur Young's Modulus (E) ([7]; 30 days): 9.1 ± 0.3 Gpa
Femur Neck Ultimate Load, (Fu) ([7]; 90 days): 146 ± 4^ac N
Mid-Femur Cortical Thickness (t) ([7]; 90 days): 0.71 ± 0.02^ac mm
Mid-Femur Moment of Inertia (I) ([7]; 90 days): 4.5 ± 0.1 mm^4
Mid-Femur Stiffness (S) ([7]; 90 days): 641 ± 14^ac N/mm
Mid-Femur Toughness (u) ([7]; 90 days): 5.7 ± 0.3^a MJ/m^3
Mid-Femur Ultimate Load (Fu) ([7]; 90 days): 209 ± 4^ac N
Mid-Femur Ultimate Stress (Su) ([7]; 90 days): 251 ± 7^ac MPa
Mid-Femur Work to Failure (U) ([7]; 90 days): 62 ± 3^a mJ
Femur Neck Ultimate Load, (Fu) ([7]; 180 days): 147 ± 6^ac N
Mid-Femur Cortical Thickness (t) ([7]; 180 days): 0.89 ± 0.01^ac mm
Mid-Femur Moment of Inertia (I) ([7]; 180 days): 5.4 ± 0.3^ac mm^4
Mid-Femur Stiffness (S) ([7]; 180 days): 814 ± 31^ac N/mm
Mid-Femur Toughness (u) ([7]; 180 days): 5.0 ± 0.3^ac MJ/m^3
Mid-Femur Ultimate Load (Fu) ([7]; 180 days): 241 ± 9^ac N
Mid-Femur Ultimate Stress (Su) ([7]; 180 days): 251 ± 8^ac MPa
Mid-Femur Work to Failure (U) ([7]; 180 days): 61 ± 4^ac mJ
increase in urinary hydroxyproline and pyridinolines ([3]; at three months (Finkelstein et al.)): approximately 200%
increase in resorption assessed using urinary NIX ([3]; at three months (Lindsay et al.)): 25%
increase in lumbar spine bone mineral density ([3]; multiple studies): 10-15%
increase in lumbar spine trabecular bone density by QCT ([3]; one study (Roe et al.)): ≤ 80%
increase in spine bone mineral density by DXA ([3]; one study (Roe et al.)): ≤ 30%

vitamin D
increase in lumbar spine bone mineral density [3, 8]: ~2%

B1: bPTH-(1-84) (protein)
chain: AVSEIQFMHNLGKHLSSMERVEWLRKKLQDVHNFVALGASIAYRDGSSQRPRKKEDNVLVESHQKSLGEADKADVDVLIKAKPQ
notes: Bovine full-length parathyroid hormone from the National Hormone and Pituitary Program
relative affinity less than the amino-terminal analogs ([4]; RCM and SaOS-2 membranes): approximately 10 fold
